Usually IC50 stands for the concentration that gives 50% inhibition. Higher therefore signals a need for much substance.

We go through 23 molecules from patent US20140045860A1, “SMALL MOLECULE INHIBITORS FOR TREATING PARASITIC INFECTIONS” (NEW YORK UNIVERSITY, priority 2011, published 2014).

In this experiment the test system is T. cruzi. The experiment in a line: T. cruzi inhibition assay (beta-galactosidase T. cruzi co-cultured with NIH/3T3 host cells). The format is cell-based. The settings on record: Trypanosoma cruzi, NIH3T3; Table 2. The protocol:
A high-throughput screen of small molecules was performed in duplicate in the recombinant Tulahuen strain of T. cruzi stably expressing a beta-galactosidase reporter gene. Trypomastogote-stage parasites were co-cultured with mouse fibroblast NIH/3T3 host cells, (Buckner F S, Verlinde C L, La Flamme A C, Van Voorhis W C. Efficient technique for screening drugs for activity against Trypanosoma cruzi using parasites expressing beta-galactosidase. Antimicrob Agents Chemother. 1996; 40(11): 2592-2597). Signal was normalized to neutral (DMSO) controls, and a 75% inhibition cutoff was used to define a hit. Compounds initially designated as hits were retested in dose in the primary assay to confirm their inhibitory activity. In parallel, compounds were tested in toxicity assays against NIH/3T3 host cells to determine if these compounds were cytotoxic to mammalian cells and thus, false positives. Compounds that reduced the viability of NIH/3T3 cells were excluded as viable hits. A subset of hits were then tested in a similar infection assay with the Tulahuen strain of T. cruzi infecting murine L-6 cells and the intracellular T. cruzi immunofluorescence assay described below.
1. T. cruzi Inhibition Assay
98% DMEM, Phenol Red, 2% FBS, and 1% PSG were mixed and filtered through a 0.2 microns membrane. The cells were kept at 4° C., then warmed up to 37° C. in a water bath before use.
Gal-Screen. Using a Gal-Screen base kit, Buffer B (Catalog no. T2361) was mixed with 1:25 substrate (Catalog no. T2359).
NIH/3T3 cells were cultivated in DMEM supplemented with 10% FBS and 1% PSG in T175 in 50 mL total of medium.
Parasite Culture: T. cruzi β-gal (Tc): T. cruzi β-gal were cultivated in DMEM supplemented with 2% FBS and 1% PSG in T175 flasks with vented caps in 50 mL total of medium.
2. Growth Inhibition Assay for HTS (384-Well Plates)
The medium was warmed up with 2% FBS/DMEM. The parasites were harvested in 50-mL tubes, and spun for 10 minutes at 2200 rpm. Approximately 15 mL of media was aspirated, and the samples were incubated for 3-5 h. The NIH/3T3 cells were trypsinized (refer to cell culture protocol). When the NIH/3T3 cells were detached, the cells were harvested in DMEM, 2% FBS, and 1% PSG, then counted using the Nexcelom cellometer. The cells were diluted to 166,667 cells/mL, then added to a flask and plated 5,000 cells/30 μL per well using a standard cassette multiwall drob Combi. The cells were incubated for 3 h, then T. cruzi cells were counted, diluted to 0.166 million cells/mL, and transferred to a 2-liter flask. Then, […] compounds/DMSO were pinned to each well with NIH/3T3 cells. Next, 30 μL/well of parasites (5000 T. cruzi) were added with a standard cassette multiwall drop Combi on slow speed, and incubated for 4 days (or a minimum of 90 h). Gal-Screen was prepared, 30 μL per well were dispensed in a 384-well plate, incubated for 60 minutes, and the luminescence was read using Envision (Perkin-Elmer) at 0.1 sec/well.
The molecule `C[C@@H]1CN([C@@H](C)CO)C(=O)c2cccc(NC(=O)c3ccncc3)c2O[C@H]1CN(C)Cc1ccc(Oc2ccccc2)cc1` [Compound 21] returned an IC50 of less than 0.0026 µM.
To `C[C@@H]1CN([C@@H](C)CO)C(=O)c2cccc(NC(=O)c3ccncc3)c2O[C@H]1CN(C)Cc1ccccc1Cl` [Compound 26] belongs 0.0039 µM; to `CC(C)N1C[C@@H](C)[C@H](CN(C)Cc2ccc(Oc3ccccc3)cc2)Oc2c(NC(=O)c3ccncc3)cccc2C1=O` [Compound 34], less than 0.0026 µM.
To `C[C@@H]1CN([C@H](C)CO)C(=O)c2cccc(NC(=O)c3ccncc3)c2O[C@H]1CN(C)Cc1ccc(Oc2ccccc2)cc1` [Compound 41] belongs 0.000529 µM.
To `C[C@@H]1CN([C@H](C)CO)C(=O)c2cccc(NC(=O)c3ccncc3)c2O[C@H]1CN(C)Cc1ccc2c(c1)OCO2` [Compound 27] belongs 0.00148 µM.
Regarding `C[C@@H]1CN([C@@H](C)CO)C(=O)c2cc(Br)cnc2O[C@H]1CN(C)Cc1ccc2c(c1)OCO2` [Compound 25], the IC50 was greater than 10 µM.
The molecule `C[C@@H]1CN([C@@H](C)CO)C(=O)c2cccc(NC(=O)c3cnccn3)c2O[C@H]1CN(C)Cc1ccc(Oc2ccccc2)cc1` [Compound 38] had a concentration for half-maximal inhibition (IC50) of 1 µM.
To `C[C@@H]1CN([C@@H](C)CO)C(=O)c2cc(-c3cccnc3)cnc2O[C@H]1CN(C)Cc1ccc(Oc2ccccc2)cc1` [Compound 43] belongs 9.27 µM.
To `C[C@@H]1CN([C@H](C)CO)C(=O)c2cccc(NC(=O)c3ccncc3)c2O[C@H]1CN(C)Cc1ccccc1` [Compound 37] belongs 0.0153 µM; to `C[C@H](CO)N1C[C@H](C)[C@@H](CN(C)Cc2ccc(Oc3ccccc3)cc2)Oc2c(NC(=O)c3ccncc3)cccc2C1=O` [Compound 24], less than 0.0026 µM.
To `C[C@@H]1CN([C@@H](C)CO)C(=O)c2cccc(NC(=O)c3ccncc3)c2O[C@H]1CN(C)Cc1ccc2c(c1)OCO2` [Compound 36] belongs 0.00659 µM; to `C[C@@H]1CN([C@@H](C)CO)C(=O)c2cccc(NC(=O)c3ccncc3)c2O[C@H]1CN(C)C` [Compound 23], greater than 10 µM; to `C[C@@H]1CN([C@@H](C)CO)C(=O)c2cccc(NC(=O)c3ccncc3)c2O[C@H]1CN(C)Cc1ccc(Cl)cc1` [Compound 30], less than 0.0026 µM.
With `C[C@@H]1CN([C@@H](C)CO)C(=O)c2cc(-c3ccncc3)cnc2O[C@H]1CN(C)Cc1ccc(Oc2ccccc2)cc1` [Compound 31], the IC50 amounted to 1.28 µM.
For `C[C@@H]1CN([C@@H](C)CO)C(=O)c2cccc(NC(=O)c3ccncc3)c2O[C@@H]1CN(C)Cc1ccc(Oc2ccccc2)cc1` [Compound 32], the IC50 came to 0.00434 µM.
To `C[C@@H]1CN([C@H](C)CO)C(=O)c2cccc(NC(=O)c3ccncc3)c2O[C@@H]1CN(C)Cc1ccc(Oc2ccccc2)cc1` [Compound 28] belongs 0.0426 µM; to `C[C@H]1CN([C@@H](C)CO)C(=O)c2cccc(NC(=O)c3ccncc3)c2O[C@H]1CN(C)Cc1ccc(Oc2ccccc2)cc1` [Compound 29], less than 0.0026 µM.
To `C[C@@H]1CN([C@@H](C)CO)C(=O)c2cccc(NC(=O)c3ccncc3)c2O[C@H]1CN(C)CC1CCCCC1` [Compound 42] belongs 0.0421 µM; to `Cc1cc(C(=O)Nc2cccc3c2O[C@@H](CN(C)Cc2ccc(Oc4ccccc4)cc2)[C@H](C)CN([C@@H](C)CO)C3=O)n(C)n1` [Compound 35], greater than 10 µM.
In turn, `C[C@H]1CN([C@@H](C)CO)C(=O)c2cccc(NC(=O)c3ccncc3)c2O[C@@H]1CN(C)Cc1ccc(Oc2ccccc2)cc1` [Compound 40] returned an IC50 of less than 0.0026 µM.
In turn, `C[C@@H]1CN([C@@H](C)CO)C(=O)c2cc(-c3cncnc3)cnc2O[C@H]1CN(C)Cc1ccc(Oc2ccccc2)cc1` [Compound 33] showed a concentration for half-maximal inhibition (IC50) greater than 10 µM.
To `C[C@@H](CO)N1CC[C@H](CN(C)Cc2cccc(Cl)c2)Oc2c(NC(=O)c3ccncc3)cccc2C1=O` [Compound 22] belongs less than 0.0026 µM; to `COc1ccc(CN(C)C[C@@H]2Oc3c(NC(=O)c4ccncc4)cccc3C(=O)N([C@@H](C)CO)C[C@H]2C)cc1` [Compound 39], 0.011 µM.
